Assay results reported in patent US20160361443A1, “Ultrasound Molecular Imaging With Targeted Biocompatible Microbubbles” (University of Pittsburgh - Of the Commonwealth System of …, priority 2015, published 2016).
Where “and” joins values, the source holds several entries; their conditions need not be identical. Equal entries are not always repeated. Entries after “also recorded” stand apart in the source; their conditions may differ. Where no end group is shown, it is not given here. Side-chain parts run from the residue outwards. microbubble albumin shell = not defined here

T1: E-selectin (Rattus norvegicus, UniProt P98105)
T1 construct: Immunofluorescent staining in all rats consistently confirmed microvascular E-selectin and ICAM-1 expression in postischemic myocardium; from tissue
T1 sequence (P98105 22-549): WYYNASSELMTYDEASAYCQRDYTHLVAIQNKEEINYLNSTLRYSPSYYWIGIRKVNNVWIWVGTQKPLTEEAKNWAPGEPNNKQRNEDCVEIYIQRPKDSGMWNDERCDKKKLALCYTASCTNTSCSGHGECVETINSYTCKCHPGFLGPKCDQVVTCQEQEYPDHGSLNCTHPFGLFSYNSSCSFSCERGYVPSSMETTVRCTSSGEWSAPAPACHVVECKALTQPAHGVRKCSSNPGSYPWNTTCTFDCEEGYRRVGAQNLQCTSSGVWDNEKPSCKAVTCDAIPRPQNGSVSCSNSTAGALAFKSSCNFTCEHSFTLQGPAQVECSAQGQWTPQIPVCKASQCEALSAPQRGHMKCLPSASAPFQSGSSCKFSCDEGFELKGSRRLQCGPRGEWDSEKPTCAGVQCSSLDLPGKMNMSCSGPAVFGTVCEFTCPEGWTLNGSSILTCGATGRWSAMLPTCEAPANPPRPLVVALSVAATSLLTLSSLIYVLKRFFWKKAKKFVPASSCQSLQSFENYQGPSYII

T2: human E-selectin on TNFα-activated HUVEC cells (human, UniProt P16581 22-610)
T2 construct: whole, on cells
T2 sequence (looked up): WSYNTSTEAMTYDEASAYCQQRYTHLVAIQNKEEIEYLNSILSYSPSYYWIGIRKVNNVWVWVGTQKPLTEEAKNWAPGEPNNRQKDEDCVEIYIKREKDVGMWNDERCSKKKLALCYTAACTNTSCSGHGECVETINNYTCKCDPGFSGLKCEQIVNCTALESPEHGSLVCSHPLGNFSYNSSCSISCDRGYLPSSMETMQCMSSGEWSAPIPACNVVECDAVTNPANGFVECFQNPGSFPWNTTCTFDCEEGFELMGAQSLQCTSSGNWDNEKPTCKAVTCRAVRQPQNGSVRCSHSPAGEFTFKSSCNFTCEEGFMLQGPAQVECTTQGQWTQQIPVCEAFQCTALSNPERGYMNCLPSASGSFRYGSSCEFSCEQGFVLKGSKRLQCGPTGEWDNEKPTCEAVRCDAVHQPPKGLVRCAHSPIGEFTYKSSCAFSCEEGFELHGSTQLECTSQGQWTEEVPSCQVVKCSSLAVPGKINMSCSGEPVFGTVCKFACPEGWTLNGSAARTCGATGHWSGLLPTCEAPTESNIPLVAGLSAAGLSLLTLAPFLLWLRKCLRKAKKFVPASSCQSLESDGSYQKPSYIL

B1: MBESEL: polymer/albumin double-shell microbubble bearing biotinylated peptide AF10166 (E-selectin targeting peptide) via biotin-streptavidin bridging (peptide)
peptide: DITWDQLWDLMK
modifications: also: biotinylated, site not given here, held on microbubble shell by biotin-streptavidin bridging
notes: The peptide stood in the assays as many copies on a gas-filled microbubble (outer shell crosslinked human albumin, inner layer PDLLA); streptavidin and albumin shell are not; also called E-selectin targeted microbubble; MBEsel (biotin-streptavidin linker)
B2: MB Esel(MAL): polymer/albumin double-shell microbubble bearing the E-selectin targeting peptide with one N-terminal cysteine, joined by a thioether bond … (peptide)
peptide: C([BM(PEG)3-microbubble albumin shell])DITWDQLWDLMK
modifications: reading uncertain; also: thioether-conjugated to polymer/albumin microbubble
notes: also called microbubble Esel(MAL); E-sel target MB (Mal)

Columns and labels:
[1] = tested on: Rat heart microvascular ECs; test: Parallel plate perfusion chamber, MB adhesion to cultured endothelial cells; type: cell-based; conditions: for MB adhesion to inflamed (activated) ECs: IL-1b-activated ECs; for MB adhesion to inflamed (activated) ECs / MB adhesion to noninflamed (normal) ECs: 5×10^6 MB in 1 mL, wall shear rate 200 s-1; for MB adhesion to activated versus normal ECs (in words): in vitro flow chamber
Experimental: (§1) Targeted biodegradable polymer MB (3.4±1.3μm) were prepared bearing a 12-mer synthetic peptide on the surface with specific E-selectin affinity (MBESEL). See, FIG. 7. Control MB had scrambled peptide (MBCTL) or non-specific IgG (MBIgG). MB adhesion to cultured rat endothelial cells (EC) was assessed in a parallel plate flow system (n=3/condition). Intravital microscopy of rat cremaster microcirculation was performed after i.v. injection of each MB type under basal or activated conditions (scrotal TNF 5μg) (n=3 rats/condition). To determine if binding events could be imaged, 6 rats had 15 min coronary artery occlusion. After 4 hrs reflow, each rat received separate i.v. boluses of MBESEL, MBCTL, and MBIgG. Non-linear echo imaging was performed 3 and 3.5 min later. Videointensity (VI) differences between the 2 time points was attributed to target-specific signal.
Cultured rat heart microvessel endothelial cells were placed on glass cover slips. The cells were then stimulated with IL-1β (2 ng/ml) for 4 hrs and then perfused with 1 mL microbubbles (5×10^6 /mL)-MBE-SEL or MBCTL. These microbubbles were then subjected to a wall shear rate of 200 sec-1. See, FIG. 8. 20 random fields (n=3) were assessed. […] FIGS. 9A and 9B.
A parallel plate perfusion chamber was used to quantify MB adhesion to cultured endothelial cells (ECs).12 Rat heart microvascular ECs (VEC Technologies, Rensselaer, N.Y.) were grown to confluence on 25 mm 3 75 mm glass coverslips. Cells were incubated for 5 hours with 5 ng/mL interleukin-1b (Sigma-Aldrich, St. Louis, Mo.) to cause activation. Coverslips with normal or IL-1b-activated ECs ([…]; 3/condition) were mounted in the chamber and perfused with one of the three MB species (5×10^6 MB in 1 mL culture medium) at a wall shear rate of 200 s-1, followed by an additional 3 mL of plain culture medium. The chamber was then mounted on a microscope (Nikon TE200) and 20 random bright-field images (3 100) of the ECs were captured (ORCA285, Hamamatsu, Bridgewater, N.J.). The mean number of attached MBs/ECs was counted offline.

[2] = tested on: rat cremaster muscle microcirculation; test: Intravital microscopy of MB adhesion in vivo; conditions: for MB adhesion to inflamed microcirculation: TNF-a 5 μg intrascrotal; for MB adhesion to normal or inflamed microcirculation (in words): basal or TNF-a activated
Experimental: as §1
An intravital microscopy of rat cremaster muscle microcirculation was performed after intravenous injection of 1×10^8 MBE-SEL or MBCTL (n=3 per condition). Non-inflamed: 4 hrs after intrascrotal injection of saline. Inflamed : 4 hrs after intrascrotal injection of TNF-α (5 μg). Real-time images were captured and microbubble adhesion was quantified in venules at 5 minutes after microbubble injection in 20 random fields. See, FIGS. 10A and 10B.
Microscopy of the rat cremaster muscle microcirculation was used for real-time visualization of MB adhesion in vivo. Sprague Dawley rats (100-120 g) received intrascrotal injection of either tumor necrosis factor a (n=9, 5 μg, Thermo Scientific, Waltham, Mass.) or 1 mL saline (n=9). Four hours later, the cremaster muscle was exteriorized and mounted on an inverted fluorescent microscope (Nikon TE200). Each rat received one intravenous injection (1×10^8 MB) of either MBESEL or control MBs (MBCTL or MBIgG) in […], followed by a […] ([…], 3 rats per MB type/inflammatory status combination, total 6 groups). Five minutes after injection, bright-field microscopic imaging of 20 random fields was performed to identify microvessels, and epi-illumination fluorescent imaging was performed to identify MBs, followed by pentobarbital overdose. Images were analyzed offline for MB adhesion per field of view, defined as MB immobility lasting≧30 seconds.
(§2) All protocols were approved by the Institutional Animal Care and Use Committee at the University of Pittsburgh. […] (Sprague Dawley, Harlan Laboratories, Indianapolis, Ind.) were anesthetized with intraperitoneal sodium pentobarbital (50 mg/kg) and maintained with 1.5 to 2.0% inhaled isoflurane. Body temperature was maintained at 37° C. with a heating pad. The internal jugular vein was cannulated with a 20-gauge catheter for MB injection.

E-selectin = target: T1, E-selectin; test: Ultrasound molecular imaging in rat myocardial ischemia-reperfusion model; type: in vivo; conditions: for Contrast enhancement of postischemic myocardium (in words): 4 h after reperfusion, 3 min after MB injection
Experimental: as §1
An open chest rat model of myocardial ischemia-reperfusion (n=6) was performed where the left anterior descending coronary artery was occluded for 15 minutes then reperfused. See, FIG. 11. At 4 hrs of reflow, the rat received separate i.v. injections of MBE-SEL or MBCTL (2.5×10^7 MBs). Triggered ultrasound imaging (8 MHz, MI 0.6, Sequoia CPS, Siemens) was performed 3 min after injection, followed by 5 destruction frames (MI 1.9) and a second imaging frame (MI 0.6) at 3.5 minutes. The videointensity difference between the two imaging frames was attributed to microbubble adhesion. See, FIG. 12.
as §2
A previously described rat model of acute myocardial ischemia and reperfusion was used for UMI of E-selectin overexpression as a marker of ischemic memory.^3 Anesthetized rats (n=6, 150-200 g) were intubated and mechanically ventilated. A lateral thoracotomy was performed, and the left anterior descending (LAD) coronary artery was occluded for 15 minutes and then reperfused. After 4 hours of reflow, each rat received separate intravenous injections of MBESEL, MBCTL, and MBIgG in random order (2.5×10^7 MBs in […] followed by a […]), and ultrasound imaging was performed as described below.
Thereafter, high mechanical index (MI) burst pulses were sent to ensure that all adhered and freely circulating MBs were destroyed prior to any subsequent injection. Typically, subsequent injections were given 5 minutes after MBs could no longer be detected in the left ventricular cavity on ultrasound imaging. The MB dosage was empirically chosen based on pilot studies assessing myocardial enhancement from various doses. At the end of the experiment, the LAD coronary artery was reoccluded, nontargeted myocardial contrast echocardiography (MCE) using plain lipid MBs was performed to delineate the risk area, and the rat was euthanized using pentobarbital overdose. Open-chest MCE in the short-axis view was performed using a contrast-specific imaging mode combining phase and amplitude modulation of the transmit signal (Cadence Contrast Pulse Sequencing, Sequoia 512, Siemens Ultrasound, Mountain View, Calif.) from a linear array transducer (15 L8) operating at 8 MHz. Probe position, dynamic range, gain settings, and focus were initially optimized and maintained constant. Ultrasound detection of bound MBs was performed using a previously described approach.^12,13 After 3 minutes to allow MB retention and washout of unbound MBs, end-systolic imaging was performed at an MI of 0.6, followed by an ultrasound burst pulse at MI of 1.9 to destroy the MBs and then end-systolic imaging 30 seconds later at MI 0.6. […]

[3] = target: T2, human E-selectin on TNFα-activated …; test: in vitro flow chamber, TNFα-activated HUVEC
[4] = 4 h, 1×10^8 MB i.v., 5 min after injection
[5] = 15 min LAD occlusion, 4 h reflow, 2.5×10^7 MBs i.v., 3 min after injection

Molecule | MB adhesion to inflamed (activated) ECs [1] | MB adhesion to activated versus normal ECs (in words) ([1]; listed as MBE-SEL) | MB adhesion to activated versus normal ECs (in words) ([1]; listed as MBEsel) | MB adhesion to noninflamed (normal) ECs [1] | MB adhesion to inflamed microcirculation [2, 4] | MB adhesion to inflamed microcirculation (Example II) ([2]; activated conditions (scrotal TNF 5μg)) | MB adhesion to non-inflamed microcirculation (Example II) ([2]; basal conditions) | MB adhesion to normal or inflamed microcirculation (in words) [2] | MB adhesion to noninflamed microcirculation ([2]; saline intrascrotal, 4 h, 1×10^8 MB i.v., 5 min after injection) | Background-subtracted videointensity, nonischemic bed (E-selectin; [5]) | Background-subtracted videointensity, postischemic (LAD) bed (E-selectin; [5]) | Contrast enhancement of postischemic myocardium (in words) (E-selectin) | Contrast enhancement of postischemic myocardium (in words) (E-selectin; listed as MBEsel) | Linear relationship, size of risk area vs size of region of persistent contrast enhancement (r) (E-selectin; y=0.98x-0.01) | MB adhesion to activated versus normal ECs (in words) [1] | MB adhesion to activated versus normal ECs (in words) ([1]; listed as MBcontrl) | binding result [3]
MBESEL: Double-layer albumin/PDLLA microbubbles conjugated with E-selectin targeting peptide AF10166 via biotin-streptavidin bridging chemistry (DITWDQLWDLMK; also: biotinylated, site not given here, on microbubble via biotin-streptavidin) | 17.4±1.8 MB/EC and 17±2 MB/EC | superior binding | greater adhesion | 5.9±3.4 MB/EC and 5±3 MB/EC | 4.8±1.2 MBs/field | 96±23 MB/field | 34±8 MB/field | adhesion to inflamed circulation (arrows) but not to control, noninflamed circulation | 1.7±0.4 MBs/field | 3.6±0.8 dB and 4±1 dB | 11.6±2.7 dB and 12±3 dB | persistent contrast enhancement of the previously ischemic LAD coronary artery territory | higher | 0.92 | – | – | –
MBCTL: Control microbubbles linked to the 12-mer randomized AF10166 sequence (H2NWKLDTLDMIWQD-COOH) via biotin-streptavidin (also: linked to microbubbles via biotin-streptavidin, site not given here) [reference compound] | 4.1±0.6 MB/EC and 5±2 MB/EC | – | – | 4±1 MB/EC | 1.5±0.3 MBs/field | – | – | minimal attachment; also recorded: minimal adhesion | – | – | 4.0±1.0 dB and 4±1 dB | not seen | – | – | no difference | minimal adhesion | –
B1 | – | – | – | – | – | – | – | – | – | – | – | – | – | – | – | – | binds
B2 | – | – | – | – | – | – | – | – | – | – | – | – | – | – | – | – | binds
